Read-outs that look alike come from different tables or passages of the source.
Tests used:
AfUGM [1] = target: T1, AfUGM (Aspergillus fumigatus, UniProt Q4W1X2); test: Competitive binding experiments using FP inhibition assay (AfUGM, chromophore 3 as probe)
T1 construct: made in house
Experimental: (§1) Each solution was done in triplicate. Anisotropy values were measured and the IC50 values obtained by fitting the data to (4), where m 1 and m 2 are the minimum and maximum anisotropy, respectively; m 3 is the slope, and m4 is the IC50.

MtUGM [2] = target: T2, MtUGM (Mycobacterium tuberculosis, UniProt P9WIQ1); test: Competitive binding FP inhibition assay (MtUGM)
T2 construct: made in house
T2 sequence (P9WIQ1 whole entry): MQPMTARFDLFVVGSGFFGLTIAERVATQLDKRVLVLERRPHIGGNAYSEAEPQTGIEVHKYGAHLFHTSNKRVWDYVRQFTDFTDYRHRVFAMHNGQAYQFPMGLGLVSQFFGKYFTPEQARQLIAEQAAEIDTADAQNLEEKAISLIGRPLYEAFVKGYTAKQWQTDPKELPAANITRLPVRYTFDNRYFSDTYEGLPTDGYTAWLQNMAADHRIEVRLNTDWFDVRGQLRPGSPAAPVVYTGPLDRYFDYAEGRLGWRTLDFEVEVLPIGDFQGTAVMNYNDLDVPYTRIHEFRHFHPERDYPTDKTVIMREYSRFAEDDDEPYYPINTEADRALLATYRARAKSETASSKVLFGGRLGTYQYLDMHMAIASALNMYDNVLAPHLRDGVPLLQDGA
Experimental: as §1

AfUGM [3] = target: T1, AfUGM; conditions: previously determined; read-out: K d for AfUGM by directly monitoring the flavin fluorescence; cited from earlier work
AfUGM [4] = target: T1, AfUGM; test: FP binding assay to determine chromophore binding affinities (AfUGM); conditions: for Kd: UDP-fluorescent probes, 15 nM chromophore, serially diluted AfUGM, 0.05 M sodium phosphate pH 7.0, fluorescence anisotropy, read-out: K d for AfUGM; for Binding to AfUGM relative to the UDP-fluorescein analogs (times better): ratio of Kd values
Experimental: Solutions containing various concentrations of chromophore in 0.05 M sodium phosphate buffer (pH 7.0) were added to 12 wells in a 96-well half area black bottom plate (Corning) with final volumes of 25 μL. FP was analyzed by a SpectraMax M5 plate reader (Molecular Devices). The parallel fluorescence emission (F=) and perpendicular fluorescence emission (F⊥) at 524 nm (for compounds 1 and 2, excitation at 492 nm) or at 584 nm (for compounds 3 and 4, excitation at 544 nm) were measured by a SpectraMax M5 plate reader (Molecular Devices), and the anisotropy (r) was calculated using (1), the minimal concentration at which stable FP signals with minimal standard deviations were chosen as the optimal concentration for the chromophore.
(1) r=F=−G·F⊥/F=+2G·F⊥ (2) y=m1+(m2−m1) ×(x+Ct+m3)−(x+Ct+m3)^2−4xCt/2Ct
Solutions containing serially diluted AfUGM and 15 nM of chromophore in 0.05 M sodium phosphate buffer (pH 7.0) were incubated at room temperature for 5 minutes. Each experiment was done in triplicate in a 96-well black bottom plate at final volumes of 25 μL. Fluorescence anisotropy was measured as indicated above, and the K d values were obtained by fitting the anisotropy data to (2), where m 1 and m 2 are the minimum and maximum anisotropy values, respectively; m 3 is the K d value, and the total concentration of UDP-chromophore is represented by C t.

MtUGM [5] = target: T2, MtUGM; test: FP binding assay to determine chromophore binding affinities (MtUGM); conditions: UDP-fluorescent probes, fluorescence anisotropy; read-out: K d for MtUGM
AfUGM [6] = target: T1, AfUGM; test: AfUGM activity assay (formation of UDP-Galp from UDP-Galf by HPLC); format: biochemical; conditions: 0.5 mM UDP-Galf, 50 nM AfUGM, 37°C, 10 min
Experimental: A 20 μL reaction containing 20 mM dithiothreitol, 0.5 mM UDP-Galf in 25 mM HEPES, 125 mM NaCl buffer, pH 7.5 in the absence of 7 or 8 was initiated by the addition of AfUGM at a final concentration of 50 nM. After incubation at 37°C for 10 min, the reaction was quenched by heat denaturation (95°C for 5 min) in a DNA engine thermocycler (BioRad, Hercules, Calif, USA). The same reaction was also performed in the presence of 7 (500 μM) or 8 (50 μM). The suspension was centrifuged and the supernatant was injected onto a CarboPac PA100 (Dionex) anion-exchange column. The sample was eluted isocratically with 75 mM KH2PO4 (pH 4.5), and the absorbance at 262 nm was monitored to identify fractions of substrate and product.

T1 sequence (Q4W1X2 whole entry): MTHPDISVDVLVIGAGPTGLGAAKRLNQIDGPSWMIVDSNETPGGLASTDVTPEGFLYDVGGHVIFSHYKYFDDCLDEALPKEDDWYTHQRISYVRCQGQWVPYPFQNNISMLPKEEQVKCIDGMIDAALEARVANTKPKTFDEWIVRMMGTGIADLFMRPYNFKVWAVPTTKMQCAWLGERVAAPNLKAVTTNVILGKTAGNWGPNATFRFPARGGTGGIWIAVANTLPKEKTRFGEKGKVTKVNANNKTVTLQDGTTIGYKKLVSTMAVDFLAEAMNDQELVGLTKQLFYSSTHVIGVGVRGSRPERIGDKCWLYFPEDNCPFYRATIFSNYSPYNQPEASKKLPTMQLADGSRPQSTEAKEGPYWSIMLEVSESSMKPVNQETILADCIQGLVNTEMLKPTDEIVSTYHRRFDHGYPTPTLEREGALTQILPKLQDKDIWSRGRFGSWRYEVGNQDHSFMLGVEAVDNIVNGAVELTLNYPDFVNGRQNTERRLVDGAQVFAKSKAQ

| Structure (SMILES) | Kd (AfUGM [4]) [µM] | Binding to AfUGM relative to the UDP-fluorescein analogs (times better) (AfUGM [4]) | Kd (MtUGM [5]) [µM] | Kd (AfUGM [1]) [µM] | Kd (MtUGM [2]) [µM] | further results |
| --- | --- | --- | --- | --- | --- | --- |
| O=c1ccn([C@@H]2O[C@H](COP(=O)(O)OP(=O)(O)O)[C@@H](O)[C@H]2O)c(=O)[nH]1 [UDP] |  |  |  |  |  | Kd (AfUGM [1]; read-out: K d for AfUGM): 9 ± 1.7 µM; Kd (MtUGM [2]; UGM ligands, FP competition, read-out: K d for MtUGM): 15 ± 2 µM; Kd (AfUGM [3]): 33 ± 9 µM |
| CN(C)c1ccc2c(-c3ccc(C(=O)NCCOP(=O)(O)OP(=O)(O)OCC4OC(n5ccc(=O)[nH]c5=O)C(O)C4O)cc3C(=O)[O-])c3ccc(=[N+](C)C)cc-3oc2c1 (stereo not drawn) [Chromophore 4] | 3 ± 0.7 | ~ 6 times | > 30 |  |  |  |
| O=C1N/C(=N/S(=O)(=O)c2ccccc2)S/C1=C1/C(=O)Nc2ccc([N+](=O)[O-])cc21 [compound 8] |  |  |  | 11 ± 0.4 | 25 ± 2 | Inhibition of AfUGM activity (conversion of UDP-Galf to UDP-Galp, HPLC) (AfUGM [6]; inhibitor 50 μM): inhibit the activity of AfUGM |
| O=C(Nc1ccccc1C(=O)O)c1ccc2c(c1)C(=O)N(c1ccc(Br)cc1)C2=O [compound 7] |  |  |  | 140 ± 9 | 21 ± 1 | Inhibition of AfUGM activity (conversion of UDP-Galf to UDP-Galp, HPLC) (AfUGM [6]; inhibitor 500 μM): inhibit the activity of AfUGM |
| CN(C)c1ccc2c(-c3ccc(C(=O)NCCCCCCOP(=O)(O)OP(=O)(O)OCC4OC(n5ccc(=O)[nH]c5=O)C(O)C4O)cc3C(=O)[O-])c3ccc(=[N+](C)C)cc-3oc2c1 (stereo not drawn) [Chromophore 3] | 2.6 ± 0.2 | ~ 6 times | 0.73 ± 0.07 |  |  |  |
